Reference: patent EP4125996B1, “EZRIN PEPTIDE 1 FOR USE IN A METHOD OF TREATING COVID-19” (priority 2020, dated 2024)
Ends that are not written are not given here.

Key:
J-96 Human Cell Line = conditions: cell cultures; R. Ataullakhanov et al. 2005; cited from earlier work
SARS-CoV-2 = experiment: Case reports: subcutaneous Ezrin peptide 1 in patients with COVID-19; type: in vivo, humans
[1] = high dosages of 50 mg per kg body weight per day or higher; no test or source given; cited from earlier work

Sequence: TEKKRRETVEREKE [Ezrin peptide 1, NH2_Thr-Glu-Lys-Lys-Arg-Arg-Glu-Thr-Val-Glu-Arg-Glu-Lys-Glu_COOH]
- anti-viral effect (J-96 Human Cell Line): has shown an anti-viral effect
- Course of Disease (symptoms) (SARS-CoV-2; Example 1, patient, 0.2 mg s.c. daily, 15.03.2020, 2nd administration): increasing symptoms
- Course of Disease (symptoms) (SARS-CoV-2; Example 1, 0.2 mg s.c. daily, 16.03.2020, 3rd administration): increasing symptoms with strong eye pain
- Course of Disease (symptoms) (SARS-CoV-2; Example 1, 0.2 mg s.c. daily, 17.03.2020, 4th administration): increasing symptoms with more cough
- Course of Disease (symptoms) (SARS-CoV-2; Example 1, 0.2 mg s.c. daily, 18.03.2020, 5th administration): significant signs of recovery, no eye pain, decreasing fever
- Course of Disease (symptoms) (SARS-CoV-2; Example 1, 0.2 mg s.c. daily, 19.03.2020, 6th administration): significant signs of recovery, normal body temperature, no fatigue
- Course of Disease (symptoms) (SARS-CoV-2; Example 1, 0.2 mg s.c. daily, 20.03.2020, 7th administration): return of taste, good general condition
- Course of Disease (symptoms) (SARS-CoV-2; Example 1, 0.2 mg s.c. daily, 21.03.2020, 8th administration): no signs of illness anymore
- course of the disease (duration) (SARS-CoV-2; Example 1, compared with the course expected for patients of this risk group): significantly shorter
- severity of symptoms after administration (SARS-CoV-2; Example 1, compared with what is expected in a patient of this risk group): significantly lower
- body temperature (SARS-CoV-2; Example 2, patient, 2 mg s.c. per dose, 25.04.2020 in the morning, second dose): 37.5 °C
- body temperature (SARS-CoV-2; Example 2, 2 mg s.c., 25.04.2020 in the evening): 39.0 °C
- Course of Disease (symptoms) (SARS-CoV-2; Example 2, 2 mg s.c., 25.04.2020, second dose): still general weakness, shortness of breath, cough, loss of appetite
- body temperature (SARS-CoV-2; Example 2, 2 mg s.c., 26.04.2020 in the evening): 37.5 °C
- Course of Disease (symptoms) (SARS-CoV-2; Example 2, 2 mg s.c., 26.04.2020, third administration): Still loss of appetite, slight cough
- body temperature (SARS-CoV-2; Example 2, 2 mg s.c., 27.04.2020): 37.4 °C
- Course of Disease (symptoms) (SARS-CoV-2; Example 2, 2 mg s.c., 27.04.2020, fourth dose): Slight cough, slight headache
- body temperature (SARS-CoV-2; Example 2, 2 mg s.c., 28.04.2020): 37.3 °C
- Course of Disease (symptoms) (SARS-CoV-2; Example 2, 2 mg s.c., 28.04.2020, fifth administration): Only slight pain of touching the scalp, still slight weakness
- Course of Disease (symptoms) (SARS-CoV-2; Example 2, 2 mg s.c., 30.04.2020, sixth administration): Significant improvement of clinical symptoms, normal temperature
- Course of Disease (symptoms) (SARS-CoV-2; Example 2, 01. to 04.05.2020, after six doses, antibiotic coverage due to increased CRP level): taste completely returned, no more cough, no more fever, clinical well-being
- Course of Disease (symptoms) (SARS-CoV-2; Example 3, patient, 2 mg/d then 0.2 mg/d for four days s.c., 25.12.2020 (therapy begun 23.12.2020)): significant improvement of cough and general condition
- Course of Disease (symptoms) (SARS-CoV-2; Example 3, after completion of HEP-1 therapy): No further symptoms
- Course of Disease (symptoms) (SARS-CoV-2; Example 4, patient, 2 mg/d for two days then 0.2 mg/d for four days s.c., 25.12.2020 (therapy begun 23.12.2020)): significant improvement of cough and general condition
- Course of Disease (symptoms) (SARS-CoV-2; Example 4, after completion of HEP-1 therapy): No further symptoms
- Course of Disease (symptoms) (SARS-CoV-2; Example 5, patient, 2 mg/d for two days then 0,2 mg/d for four days s.c., 26.12.2020 (therapy begun 23.12.2020)): significant improvement of symptoms
- Course of Disease (symptoms) (SARS-CoV-2; Example 5, after completion of the initial HEP-1 therapy): No further symptoms after completion of HEP-1 therapy until 13.01.2021, then severe shortness of breath
- Course of Disease (shortness of breath) (SARS-CoV-2; Example 5, after subsequent 0,2 mg/d s.c. for fourteen days from 15.01.2021): No further shortness of breath
- Course of Disease (symptoms) (SARS-CoV-2; Example 6, patient, 0.2 mg/d s.c. for ten days from 10.12.2020, 14.12.2020): significant improvement of symptoms
- Course of Disease (symptoms) (SARS-CoV-2; Example 6, 0.2 mg/d s.c. for ten days, 20.12.2020): complete recovery of symptoms
- toxicity [1]: not toxic
